The values that follow are results of earlier work, collected in US20240000142A1, “AEROSOL […] FOR AQUEOUS CANNABINOID COMPOSITIONS” (OMEGA LIFE SCIENCE LTD., priority 2020, published 2024).

The conditions of the series: nicotine as a weak base; "as appreciated by the skilled in the art".

With `CN1CCCC1c1cccnc1` (stereo not shown) [nicotine], the pKa entry was “about 8”.
